Assays:
[1] = tested on: 84 key genes involved in tissue remodeling; MMP3, CCL12, HIF1A; assay: Gene and protein expression in lung tissues (Example 2); type: in vivo, mice; details: treatment with PGE2
Description: The profiles of the expression of 84 key genes involved in tissue remodeling during wound repair and development of fibrosis were studied in the lung tissues. […] Overexpression of some proteins was confirmed using immunostaining of lung tissue sections (FIG. 13A). In addition to genes included in the mouse fibrosis array, the expression of VEGF and hypoxia inducible factor 1 alpha (HIF1A) proteins was analyzed by immunohistochemistry (FIG. 13A) and Western blotting (FIG. 13B). Instillation of bleomycin led to the overexpression of HIF1A protein (FIGS. 13A and B).

[2] = tested on: IPF initiated by the intratracheal instillation of bleomycin; assay: Animal model of IPF and inhalation treatment starting day 15 (Example 2): body and lung weight, hydroxyproline, MRI, histology
Description: Healthy 6-8 weeks old SKH1-hr hairless mice of both genders (20-25 g) were obtained from Charles River Laboratories (Wilmington, Mass.). IPF was initiated by the intratracheal instillation of bleomycin at the dose of 1.5 U/kg. Changes in animal body and lung weight, hydroxyproline content in the lung tissue, and lung histology were used as hallmarks of the development of IPF in experimental animals.
Mice were treated separately with three different NLC-based DDS containing PGE2 and siRNA targeted to MMP3, CCL12 and HIF1A mRNA with appropriate controls by inhalation twice a week for three weeks starting 15 days after the bleomycin administration. […] A previously developed instillation unit consisting of a collision nebulizer connected to four-port, nose-only exposure chambers was used for inhalation delivery of NLC-PEG2-siRNA. NLC-based DDS was aerosolized at the flow rate of 2 L/min for ten min. Animal weight was measured daily throughout the study. In vivo imaging was performed twice per week in anesthetized mice during the whole course of the treatment. Optical Imaging (In-Vivo MS FX PRO, IVIS 100) and ultrasound (Vevo 2100 imaging system) was performed to monitor the body distribution of nanoparticles and disease progression, respectively. Animals were treated 6 times (2 times per week) starting from the day 15 after bleomycin instillation.
Expression of genes and proteins involved in the development and compensation of IPF was studied by quantitative RT-PCR (genes), Western blotting and Immunohistochemistry (proteins). In addition, body and organ weights as well as hydroxyproline content in the lungs was monitored. The distribution of osmium-, fluorescent- or tritium-labeled DDS was examined in mouse lungs, heart, liver, spleen, kidneys, and brain using transmission electron and confocal microscopes, optical imaging systems, and a radioactive counter, respectively. Adverse side effects of the treatment were determined by histopathological analysis, apoptosis and necrosis measurement in the healthy organs (heart, liver, spleen, kidneys, and brain).
Changes in animal body and lung weight, hydroxyproline content in the lung tissue and lung histology were used as hallmarks of the development of IPF in experimental animals after the instillation of 1.5 U/kg of bleomycin.

[3] = tested on: hydroxyproline content in the lungs; assay: Hydroxyproline assay in lungs (Example 1); type: in vivo, mice; details: three weeks after instillation of 1.5 U/kg bleomycin
Description: […] Homogenized lung tissues were hydrolyzed in 12 N HCl at 120° C. for 3 h in pressure-tight vials. After this, 10 μl of samples were allocated to a 96 well plate and dried under vacuum. Oxidation buffer with chloramine T was added to each sample at room temperature for 5 min, and the samples were incubated in dimethylaminobenzaldehyde (DMAB) reagent for 90 min at 60° C. Samples were cooled and the absorbance at 560 nm was measured using an automated microplate plate reader. Six concentrations of hydroxyproline standard dilutions (from 0 to 1 μg/well) were used to plot a hydroxyproline standard curve.

[4] = tested on: mice; assay: Selection of bleomycin dose (animal death after intratracheal instillation); type: in vivo; details: observed 21 days
Description: (§1) Experiments were performed on healthy 6-8 weeks old SKH1-hr hairless mice (20-25 g) obtained from Charles River Laboratories (Wilmington, Mass.). Veterinary care followed the guidelines described in the guide for the care and use of laboratory animals (AAALAC) as well as the requirements established by the animal protocol approved by the Rutgers Institutional Animal Care and Use Committee (IACUC).
(§2) All mice were contained in micro-isolated cages under pathogen-free conditions at room temperature with humidity of 40±15% and light/dark cycle on 12 h per day in the animal maintenance facility. Mice were anesthetized via intraperitoneal instillation with 80 mg/kg ketamine and 10-12 mg/kg xylazine (Butler-Schine Animal Health Inc, Dublin, Ohio). Once anesthetized, the mouse was placed on the tilting rodent work stand (Hallowell EMC, Pittsfield, Mass.) in supine position and restrained in position by an incisor loop. The tongue was then extruded via rotation with a cotton tip applicator. The larynx was visualized using a modified 4 mm ear speculum attached to an operating head of an ophthalmoscope (Wellch Allyn, Skaneateles Falls, N.Y.). The modified speculum, acting in an inverted fashion as a laryngoscope blade, provided dorsal displacement of the tongue and magnification of the laryngeal opening as described.
Bleomycin was administered intratracheally in doses of 0.5, 1.0, 1.5, and 2.0 U/kg. Mice were treated with liposomal PGE2 by inhalation twice a week for three weeks starting with the second day after the bleomycin administration. […] Animal weight was measured daily throughout the study. After the three weeks treatment period, all mice were anesthetized with isoflurane and euthanized. The organs (lungs, heart, liver, kidney, spleen, and brain) were excised and used for further analysis.
In order to select an appropriate dose of bleomycin, four doses (0.5; 1.0; 1.5; 2.0 U/kg) were tested. […] The dose of 2.0 U/kg led to the death of 100% of animals within 21 days (FIG. 1A). The doses of 1.5 and 1.0 U/kg induced death of 50 and 25% of animals, respectively.

[5] = tested on: lung tissue; assay: Histopathologic analysis of lungs (Example 1); type: in vivo, mice; details: 1.5 U/kg bleomycin instilled
Source text: At the end of the experiments, the animals were euthanized, the lungs were extracted and immediately fixed in 10% phosphate-buffered formalin. Samples were subsequently dehydrated and embedded in Paraplast®. Five-micrometer sections were cut and stained with hematoxylin-eosin as previously described and analyzed.

[6] = tested on: lung fibrosis induced by intratracheal instillation of bleomycin; assay: Animal model of IPF and inhalation treatment: body mass and mortality (Example 1); type: in vivo, mice; details: three weeks after instillation of 1.5 U/kg bleomycin
Description: as §1
as §2, with “The modified speculum, acting in an inverted fashion as a laryngoscope blade, provided dorsal displacement of the tongue and magnification of the laryngeal opening as described.” left out
Bleomycin was administered intratracheally in doses of 0.5, 1.0, 1.5, and 2.0 U/kg. […] Animal weight was measured daily throughout the study. […]

[7] = PGE2 delivered by liposomes or NLC by inhalation, from day 15
[8] = 15 days after instillation of 1.5 U/kg bleomycin

| Compound | expression of MMP3, CCL12 and HIF1A versus control after treatment [1] | signs of IPF and lung tissue injury detected by MRI and histopathology ([2]; PGE2 alone delivered locally into the lungs) | hydroxyproline content in the lungs of treated animals versus healthy control ([2]; PGE2 by inhalation, from day 15) | body weight of experimental animals [2, 7] | lung weight [2, 7] | therapeutic effects of PGE2 delivered by liposomes versus NLC ([2]; inhalation) | increase of hydroxyproline concentration in the lungs [3] [times] | body weight of animals, % of its initial value [2, 8] [%] | increase of hydroxyproline concentration in the lungs [2, 8] [fold] | lung weight [2, 8] | lung histology ([2]; bleomycin 1.5 U/kg) | animal death ([4]; bleomycin 0.5 U/kg intratracheally) | death of animals ([4]; bleomycin 1.0 U/kg intratracheally) [%] | death of animals ([4]; bleomycin 1.5 U/kg intratracheally) [%] | death of animals within 21 days ([4]; bleomycin 2.0 U/kg intratracheally) [%] | lung histology [5] | body mass of animals, % of its initial value [6] [%] |
| --- | --- | --- | --- | --- | --- | --- | --- | --- | --- | --- | --- | --- | --- | --- | --- | --- | --- |
| CCCCC[C@H](O)/C=C/[C@H]1[C@H](O)CC(=O)[C@@H]1C/C=C\CCCC(=O)O [PGE2, Prostaglandin E2] | still substantially higher when compared with control | substantially less pronounced | still significantly higher | decreased the body weight of experimental animals induced by bleomycin | had a little effect on the lung weight | comparable |  |  |  |  |  |  |  |  |  |  |  |
| bleomycin |  |  |  |  |  |  | 2.6 | 75 | 2.6 | significantly increased | consolidation of the pulmonary architecture, with early fibrotic thickening of the alveolar walls, ablation of the alveolar space, and edema | did not induce animal death | 25 | 50 | 100 | consolidation of the pulmonary architecture, with early fibrotic thickening of the alveolar walls, ablation of the alveolar space, and edema | 75 |
